Assays:
Assay in all cases: relative viability (nuclei count vs DMSO), 5 days (fraction); higher = more cells survive
[1] = compound: CC1=C(C(=O)N2C=CSC2=N1)CCN3CCC(=C(C4=CC=CC=C4)C5=CC=C(C=C5)F)CC3 + N=C(N)NC(=N)NCCc1ccccc1 [Phenformin] (partner 250 µM)
Procedure, shortened: (§1)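 Medians of duplicate plates are given as relative viability. That measure is the nuclei count in treated wells divided by the count in vehicle wells. Counts were taken on 4× images of lung cancer cell lines in 1536-well plates, 5 days after pin-tool dosing the day after seeding with one drug alone or a fixed anchor-drug dose plus five library-drug doses (not always all listed) in √10 steps.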

[2] = compound: CC1=C(C(=O)N2C=CSC2=N1)CCN3CCC(=C(C4=CC=CC=C4)C5=CC=C(C=C5)F)CC3 + CS(=O)(=O)CCNCc1ccc(-c2ccc3ncnc(Nc4ccc(OCc5cccc(F)c5)c(Cl)c4)c3c2)o1 [Lapatinib] (partner 2 µM)
Procedure, shortened: as §1

[3] = compound: CC1=C(C(=O)N2C=CSC2=N1)CCN3CCC(=C(C4=CC=CC=C4)C5=CC=C(C=C5)F)CC3 + O=C(c1cc(Cc2n[nH]c(=O)c3ccccc23)ccc1F)N1CCN(C(=O)C2CC2)CC1 [Olaparib] (partner 8 µM)
Procedure, shortened: as §1

[4] = compound: CC1=C(C(=O)N2C=CSC2=N1)CCN3CCC(=C(C4=CC=CC=C4)C5=CC=C(C=C5)F)CC3 + CC(=O)Nc1cccc(-n2c(=O)n(C3CC3)c(=O)c3c(Nc4ccc(I)cc4F)n(C)c(=O)c(C)c32)c1 [Trametinib] (partner 0.02 µM)
Procedure, shortened: as §1

| Cell Line | relative viability ([1]; first compound 0.08 µM) | relative viability ([1]; first compound 0.253 µM) | relative viability ([1]; first compound 0.8 µM) | relative viability ([1]; first compound 2.53 µM) | relative viability ([1]; first compound 8 µM) | relative viability ([2]; first compound 0.08 µM) | relative viability ([2]; first compound 0.253 µM) | relative viability ([2]; first compound 0.8 µM) | relative viability ([2]; first compound 2.53 µM) | relative viability ([2]; first compound 8 µM) | relative viability ([3]; first compound 0.08 µM) | relative viability ([3]; first compound 0.253 µM) | relative viability ([3]; first compound 0.8 µM) | relative viability ([3]; first compound 2.53 µM) | relative viability ([3]; first compound 8 µM) | relative viability ([4]; first compound 0.08 µM) | relative viability ([4]; first compound 0.253 µM) | relative viability ([4]; first compound 0.8 µM) | relative viability ([4]; first compound 2.53 µM) | relative viability ([4]; first compound 8 µM) |
| --- | --- | --- | --- | --- | --- | --- | --- | --- | --- | --- | --- | --- | --- | --- | --- | --- | --- | --- | --- | --- |
| HARA | 0.525 | 0.513 | 0.54 | 0.544 | 0.269 | 1.01 | 1.06 | 0.873 | 0.82 | 0.625 | 0.761 | 0.779 | 0.821 | 0.755 | 0.774 | 0.982 | 0.567 | 0.746 | 0.368 | 0.551 |
| LXF-289 | 0.463 | 0.542 | 0.508 | 0.482 | 0.376 | 0.98 | 0.953 | 0.926 | 0.907 | 0.844 | 0.987 | 1.32 | 1.07 | 1 | 0.635 | 0.592 | 0.67 | 0.738 | 0.634 | 0.537 |
| NCI-H647 | 0.573 | 0.644 | 0.54 | 0.438 | 0.348 | 1.06 | 1.05 | 1.19 | 1.26 | 0.319 | 0.489 | 0.518 | 0.793 | 0.481 | 0.358 | 0.388 | 0.609 | 0.541 | 0.612 | 0.249 |
| HCC-78 | 0.689 | 0.76 | 0.695 | 0.691 | 0.531 | 0.851 | 0.784 | 0.731 | 0.779 | 0.51 | 0.663 | 0.872 | 0.944 | 0.921 | 0.608 | 0.818 | 0.837 | 0.941 | 0.727 | 0.616 |
| LCLC-97TM1 | 0.435 | 0.434 | 0.447 | 0.448 | 0.411 | 0.7 | 1 | 1.08 | 1.03 | 0.677 | 0.414 | 0.342 | 0.425 | 0.452 | 0.344 | 0.183 | 0.18 | 0.23 | 0.172 | 0.151 |
| NCI-H1944 | 0.195 | 0.207 | 0.229 | 0.188 | 0.182 | 1.1 | 0.904 | 0.773 | 1.1 | 0.898 | 0.422 | 0.446 | 0.38 | 0.383 | 0.359 | 0.382 | 0.373 | 0.436 | 0.368 | 0.335 |
| HCC-44 | 0.172 | 0.15 | 0.148 | 0.217 | 0.202 | 1.07 | 0.83 | 1 | 1.07 | 0.787 | 1.01 | 1.08 | 1.03 | 1.13 | 0.643 | 1.13 | 1.12 | 1.13 | 1.01 | 1.04 |
